Source: PubChem BioAssay AID1963971 (Molecular Pharmacology Branch, DTP, NCI, 2024)

System: 953936-095-R-J2-PDC spheroids with HUVEC/MSC, viability
Experiment: Anticancer human tumor 953936-095-R-J2-PDC patient-derived cervical squamous cell carcinoma cell line growth inhibition [PI3K]
Details: for IC50: curve of first compound; for viability, T/C: stronger effect = lower value
Outline: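 Combination activity was assessed by viability in multicellular tumor spheroids carrying HUVEC and MSC components. Agents were tested with PI3K inhibitors from a Cmax-based top dose (or 10 microM) downward in half-log increments.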

[1] = second compound 0.0316 µM, first compound 0.0316 µM
[2] = second compound 0.0316 µM, first compound 0.1 µM
[3] = second compound 0.0316 µM, first compound 0.316 µM
[4] = second compound 0.0316 µM, first compound 1 µM
[5] = second compound 0.0316 µM, first compound 3.16 µM
[6] = second compound 0.0316 µM, first compound 10 µM
[7] = second compound 0.1 µM, first compound 0.0316 µM
[8] = second compound 0.1 µM, first compound 0.1 µM
[9] = second compound 0.1 µM, first compound 0.316 µM
[10] = second compound 0.1 µM, first compound 1 µM
[11] = second compound 0.1 µM, first compound 3.16 µM
[12] = second compound 0.1 µM, first compound 10 µM
[13] = second compound 0.316 µM, first compound 0.0316 µM
[14] = second compound 0.316 µM, first compound 0.1 µM
[15] = second compound 0.316 µM, first compound 0.316 µM
[16] = second compound 0.316 µM, first compound 1 µM
[17] = second compound 0.316 µM, first compound 3.16 µM
[18] = second compound 0.316 µM, first compound 10 µM
[19] = second compound 1 µM, first compound 0.0316 µM
[20] = second compound 1 µM, first compound 0.1 µM
[21] = second compound 1 µM, first compound 0.316 µM
[22] = second compound 1 µM, first compound 1 µM
[23] = second compound 1 µM, first compound 3.16 µM
[24] = second compound 1 µM, first compound 10 µM
[25] = second compound 3.16 µM, first compound 0.0316 µM
[26] = second compound 3.16 µM, first compound 0.1 µM
[27] = second compound 3.16 µM, first compound 0.316 µM
[28] = second compound 3.16 µM, first compound 1 µM
[29] = second compound 3.16 µM, first compound 3.16 µM
[30] = second compound 3.16 µM, first compound 10 µM
[31] = second compound 10 µM, first compound 0.0316 µM
[32] = second compound 10 µM, first compound 0.1 µM
[33] = second compound 10 µM, first compound 0.316 µM
[34] = second compound 10 µM, first compound 1 µM
[35] = second compound 10 µM, first compound 3.16 µM
[36] = second compound 10 µM, first compound 10 µM
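Note: spheroids exposed to compounds for seven days before read-out.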

CC1(C)CCC(Nc2ncc(C(F)(F)F)c(-c3c[nH]c4c(P(C)(C)=O)c(C#N)ccc34)n2)CN1 (stereo unspecified) + Cc1nc(NC(=O)N2CCCC2C(N)=O)sc1-c1ccnc(C(C)(C)C(F)(F)F)c1 was tested, and the IC50 (second compound 0.0316 µM) was 31.6 nM, the IC50 (second compound 0.1 µM) was 31.6 nM and the IC50 (second compound 0.316 µM) was less than 31.6 nM. It also gave an IC50 (second compound 1 µM) of less than 31.6 nM, an IC50 (second compound 3.16 µM) of less than 31.6 nM and an IC50 (second compound 10 µM) of less than 31.6 nM. The viability, T/C [1] was 45.1%, the viability, T/C [2] was 50% and the viability, T/C [3] was 46.5%. For the same molecule, the viability, T/C [4] was 52.4%, the viability, T/C [5] was 55.8% and the viability, T/C [6] was 8.23%. For the same molecule, the viability, T/C [7] was 45.9%, the viability, T/C [8] was 39.1% and the viability, T/C [9] was 42.2%. The viability, T/C [10] was 42.6%, the viability, T/C [11] was 54.3% and the viability, T/C [12] was 5.8%. It also gave a viability, T/C [13] of 38.9%, a viability, T/C [14] of 37.8% and a viability, T/C [15] of 40.8%. The viability, T/C [16] was 38.9%, the viability, T/C [17] was 38.3% and the viability, T/C [18] was 3.36%. For the same molecule, the viability, T/C [19] was 30.8%, the viability, T/C [20] was 27.1% and the viability, T/C [21] was 26%. It also gave a viability, T/C [22] of 28.1%, a viability, T/C [23] of 33.4% and a viability, T/C [24] of 1.62%. For the same molecule, the viability, T/C [25] was 18.2%, the viability, T/C [26] was 19.4% and the viability, T/C [27] was 17.2%. It also gave a viability, T/C [28] of 20.1%, a viability, T/C [29] of 13.8% and a viability, T/C [30] of 0.46%. The viability, T/C [31] was 9.15%, the viability, T/C [32] was 9.91% and the viability, T/C [33] was 10.7%. The viability, T/C [34] was 10.3%, the viability, T/C [35] was 5.73% and the viability, T/C [36] was 0.31%.

CC1(C)CCC(Nc2ncc(C(F)(F)F)c(-c3c[nH]c4c(P(C)(C)=O)c(C#N)ccc34)n2)CN1 (stereo unspecified) + CC(Nc1ccc2c(c1)OCCn1cc(N3C(=O)OCC3C(F)F)nc1-2)C(N)=O showed an IC50 (second compound 0.00316 µM) of less than 31.6 nM, an IC50 (second compound 0.01 µM) of less than 31.6 nM and an IC50 (second compound 0.0316 µM) of less than 31.6 nM. It also gave an IC50 (second compound 0.1 µM) of less than 31.6 nM, an IC50 (second compound 0.316 µM) of less than 31.6 nM and an IC50 (second compound 1 µM) of less than 31.6 nM. It also gave a viability, T/C (second compound 0.00316 µM, first compound 0.0316 µM) of 48.3%, a viability, T/C (second compound 0.00316 µM, first compound 0.1 µM) of 44.8% and a viability, T/C (second compound 0.00316 µM, first compound 0.316 µM) of 49.2%. The viability, T/C (second compound 0.00316 µM, first compound 1 µM) was 58.6%, the viability, T/C (second compound 0.00316 µM, first compound 3.16 µM) was 45.3% and the viability, T/C (second compound 0.00316 µM, first compound 10 µM) was 5.82%. For the same molecule, the viability, T/C (second compound 0.01 µM, first compound 0.0316 µM) was 49.9%, the viability, T/C (second compound 0.01 µM, first compound 0.1 µM) was 45% and the viability, T/C (second compound 0.01 µM, first compound 0.316 µM) was 42.8%. The viability, T/C (second compound 0.01 µM, first compound 1 µM) was 51.6%, the viability, T/C (second compound 0.01 µM, first compound 3.16 µM) was 50.3% and the viability, T/C (second compound 0.01 µM, first compound 10 µM) was 5.56%. The viability, T/C [1] was 45.9%, the viability, T/C [2] was 42.4% and the viability, T/C [3] was 39.2%. The viability, T/C [4] was 40.8%, the viability, T/C [5] was 44.9% and the viability, T/C [6] was 4.63%. The viability, T/C [7] was 38.5%, the viability, T/C [8] was 32.2% and the viability, T/C [9] was 35.2%. It also gave a viability, T/C [10] of 32.7%, a viability, T/C [11] of 41.1% and a viability, T/C [12] of 3.61%. For the same molecule, the viability, T/C [13] was 21.5%, the viability, T/C [14] was 22.4% and the viability, T/C [15] was 22.4%. For the same molecule, the viability, T/C [16] was 22.4%, the viability, T/C [17] was 19.8% and the viability, T/C [18] was 1.3%. It also gave a viability, T/C [19] of 16.5%, a viability, T/C [20] of 16.3% and a viability, T/C [21] of 17.7%. The viability, T/C [22] was 16.6%, the viability, T/C [23] was 15.7% and the viability, T/C [24] was 0.88%.

C[C@@H](NC(=O)c1ncnc(N)c1Cl)c1ncc(C(=O)Nc2cc(C(F)(F)F)c(Cl)cn2)s1 + Cc1nc(NC(=O)N2CCCC2C(N)=O)sc1-c1ccnc(C(C)(C)C(F)(F)F)c1 showed an IC50 (second compound 0.0316 µM) greater than 10000 nM, an IC50 (second compound 0.1 µM) greater than 10000 nM and an IC50 (second compound 0.316 µM) greater than 10000 nM. The IC50 (second compound 1 µM) was 192 nM, the IC50 (second compound 3.16 µM) was less than 31.6 nM and the IC50 (second compound 10 µM) was less than 31.6 nM. The viability, T/C [1] was 91.4%, the viability, T/C [2] was 92.8% and the viability, T/C [3] was 101%. The viability, T/C [4] was 97.8%, the viability, T/C [5] was 114% and the viability, T/C [6] was 92.1%. For the same molecule, the viability, T/C [7] was 84.7%, the viability, T/C [8] was 86% and the viability, T/C [9] was 87%. It also gave a viability, T/C [10] of 89.4%, a viability, T/C [11] of 84.1% and a viability, T/C [12] of 81.2%. The viability, T/C [13] was 66.5%, the viability, T/C [14] was 69.3% and the viability, T/C [15] was 65.1%. For the same molecule, the viability, T/C [16] was 72%, the viability, T/C [17] was 67% and the viability, T/C [18] was 71.3%. The viability, T/C [19] was 53.3%, the viability, T/C [20] was 49.1% and the viability, T/C [21] was 47.2%. For the same molecule, the viability, T/C [22] was 49.9%, the viability, T/C [23] was 49.5% and the viability, T/C [24] was 45.2%. It also gave a viability, T/C [25] of 28.2%, a viability, T/C [26] of 28.7% and a viability, T/C [27] of 27.6%. The viability, T/C [28] was 29%, the viability, T/C [29] was 31% and the viability, T/C [30] was 27.4%. For the same molecule, the viability, T/C [31] was 13.3%, the viability, T/C [32] was 14.4% and the viability, T/C [33] was 15%. The viability, T/C [34] was 17%, the viability, T/C [35] was 14.9% and the viability, T/C [36] was 11.6%.
